Test results as given in publication PMC4475420 (Chemistry & biology, 2015).

Columns and labels:
Test in all cases: PK/LDH coupled NADH oxidation assay, […] nm
Type in all cases: biochemical
OtsA(Sco) = biological target: T1, OtsA(Sco) (Streptomyces coelicolor, UniProt Q9KXV1); conditions: 5 mM MgCl2, Tris-HCl pH 7.5
T1 sequence (Q9KXV1 1-462): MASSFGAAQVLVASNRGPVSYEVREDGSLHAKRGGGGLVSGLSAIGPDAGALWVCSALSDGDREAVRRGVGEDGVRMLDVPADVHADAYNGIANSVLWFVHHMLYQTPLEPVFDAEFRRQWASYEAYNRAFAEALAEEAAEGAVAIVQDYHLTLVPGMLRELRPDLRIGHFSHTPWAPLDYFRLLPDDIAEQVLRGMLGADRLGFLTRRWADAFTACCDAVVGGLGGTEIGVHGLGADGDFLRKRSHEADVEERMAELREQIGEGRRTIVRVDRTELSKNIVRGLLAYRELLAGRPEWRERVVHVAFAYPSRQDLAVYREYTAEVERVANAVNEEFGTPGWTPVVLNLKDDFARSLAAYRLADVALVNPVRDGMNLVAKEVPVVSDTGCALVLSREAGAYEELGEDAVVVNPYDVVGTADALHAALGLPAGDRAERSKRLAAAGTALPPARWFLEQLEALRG

Chimera-2 = conditions: 5 mM MgCl2, Tris-HCl pH 7.5
VldE = VldE (Streptomyces hygroscopicus, UniProt Q15JG1); conditions: 2 mM validamine 7-phosphate, 5 mM MgCl2, Tris-HCl pH 7.5
Chain of VldE (Q15JG1 whole entry): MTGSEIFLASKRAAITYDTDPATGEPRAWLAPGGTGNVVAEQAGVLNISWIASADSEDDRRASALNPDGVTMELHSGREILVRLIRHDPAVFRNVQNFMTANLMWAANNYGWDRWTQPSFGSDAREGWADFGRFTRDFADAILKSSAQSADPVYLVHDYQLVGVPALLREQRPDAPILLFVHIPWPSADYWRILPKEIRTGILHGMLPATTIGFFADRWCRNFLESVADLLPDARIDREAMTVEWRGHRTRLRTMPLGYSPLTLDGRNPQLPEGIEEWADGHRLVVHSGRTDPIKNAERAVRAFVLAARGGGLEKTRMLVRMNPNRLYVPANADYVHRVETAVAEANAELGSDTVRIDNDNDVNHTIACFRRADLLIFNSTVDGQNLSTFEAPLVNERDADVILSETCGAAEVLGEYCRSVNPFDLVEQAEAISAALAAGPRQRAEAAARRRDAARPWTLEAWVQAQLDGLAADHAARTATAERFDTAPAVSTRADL

Chimera-1 = conditions: 5 mM MgCl2, Tris-HCl pH 7.5

Nc1ccn([C@@H]2O[C@H](COP(=O)(O)OP(=O)(O)O[C@H]3O[C@H](CO)[C@@H](O)[C@H](O)[C@H]3O)[C@@H](O)[C@H]2O)c(=O)n1 [CDP-glucose]
Km (OtsA(Sco); 2 mM glucose 6-phosphate): > 4 mM

Nc1nc2c(ncn2[C@@H]2O[C@H](COP(=O)(O)OP(=O)(O)O[C@H]3O[C@H](CO)[C@@H](O)[C@H](O)[C@H]3O)[C@@H](O)[C@H]2O)c(=O)[nH]1 [GDP-glucose]
Km (Chimera-2; 2 mM glucose 6-phosphate): 3.56 ± 0.38 mM | Km (VldE): > 2.2 mM | Km (Chimera-1; 2 mM validamine 7-phosphate): 1.1 ± 0.07 mM

Nc1nc2c(ncn2[C@@H]2O[C@H](COP(=O)(O)OP(=O)(O)O[C@H]3C=C(CO)[C@@H](O)[C@H](O)[C@H]3O)[C@@H](O)[C@H]2O)c(=O)[nH]1 [GDP-valienol]
Km (Chimera-1; 2 mM validamine 7-phosphate): > 10 mM

O=P(O)(O)OC[C@H]1OC(O)[C@H](O)[C@@H](O)[C@@H]1O (stereo partly drawn) [glucose 6-phosphate]
Km (Chimera-2; 2 mM GDP-glucose): 6.44 ± 0.95 mM

N[C@H]1C[C@H](COP(=O)(O)O)[C@@H](O)[C@H](O)[C@H]1O [validamine 7-phosphate]
Km (Chimera-1; 2 mM GDP-glucose): 0.975 ± 0.1 mM

O=P(O)(O)OC[C@H]1C[C@H](O)[C@H](O)[C@@H](O)[C@@H]1O [validol 7-phosphate]
Km (Chimera-2; 2 mM GDP-glucose): 4.95 ± 0.7 mM | Km (OtsA(Sco); 2 mM GDP-glucose): > 10 mM
